Legend:
[1] = test system: 22RV1 (human prostate cancer); assay: In vitro inhibitory effect against human tumor cells (SRB); type: cell-based; conditions: 22Rv1, 72 h, 22RV1, SRB, 3 days
[2] = test system: A375 (human malignant melanoma); assay: as above; type: cell-based; conditions: A-375, 72 h, 3 days
[3] = test system: HCC827 (human non-small cell lung cancer); assay: as above; type: cell-based; conditions: HCC827, 72 h, 3 days
[4] = test system: HepG2 (human liver cancer cell); assay: as above; type: cell-based; conditions: HepG2, 72 h, 3 days
[5] = test system: MDA-MB-468 (human triple-negative breast cancer); assay: as above; type: cell-based; conditions: MDA-MB-468, 72 h, MDA-MB-468, SRB, 3 days
[6] = test system: SW620 (human colorectal cancer); assay: as above; type: cell-based; conditions: SW-620, 72 h, 3 days
[7] = test system: human gastric cancer NCI-N87; assay: Biological Example 3: in vivo xenograft model of human gastric cancer NCI-N87; parameters: species or system Balb/c-nu nude mice; conditions: nude mice
Experimental: First, the xenograft model of human gastric cancer NCI-N87 was established subcutaneously in nude mice by inoculation with a cell-matrigel mixture. When the xenograft tumor grew to a volume of 100-300 mm^3 and maintained stable growth, the experimental animals were randomly grouped using remainder method based on the tumor volume and administered with drugs. The tumor volume was measured 2 to 3 times every week. After the dosing period was completed, the experimental animals were killed, and the subcutaneous tumors were excised and weighed. The anti-tumor activity of the drug in this model was evaluated based on relevant data of the tumor volumes and the tumor weights. Table 8: List of experimental animal groups and dosage regimens
Calculation formula of the tumor volume: volume=0.5× long diameter × short diameter^2. Relative tumor volume(RTV): RTV = Vt/ V0 [formula]
V0 is the tumor volume measured at the time of grouping for dosing (i.e., d0), and Vt is the tumor volume measured each time. Relative tumor proliferation rate(T/C): T/C = TRTV /CRTV × 100% [formula]
T is the mean RTV of the test compound, and C is the mean RTV of the model control group. [formula] Body weight change percentage = Wn /W0 × 100% [formula]
Wn: mean body weight of each group of experimental animals on day n, and W0: mean body weight of each group of experimental animals on day 0.
The purchased experimental animals were subjected to balanced feeding for 3 days. A xenograft model was established in nude mice by inoculation with a cell-matrigel mixture: conventionally cultured NCI-N87 cells in the logarithmic growth phase were sampled, digested, collected, and adjusted with PBS to a cell density of 6×10^7 cells/mL. In an ice water bath, the cell suspension was slowly added to an equal volume of matrigel, the system was fully mixed, and then the xenograft model was established by subcutaneous inoculation in the right armpit of male nude mice, with 0.15 mL/mouse and a cell inoculum size of approximately 4.5 million cells/mouse.
The tumor growth of the model animals was regularly observed. When the mean tumor volume of the model nude mice reached about 100-300 mm^3, the experimental animals were randomly grouped using the remainder method based on the tumor volume, and administered with drugs. The day on which the animals were grouped was day 0. After grouping, drugs were administered to each group according to Table 8. The dosage or dosing period can be appropriately adjusted based on the tumor growth and the animal state. After administration, the tumor volumes of the experimental animals were measured 2-3 times every week until the experiment was completed. After the dosing period was completed, the experimental animals were killed, and the subcutaneous tumors were excised and weighed. The anti-tumor activity of each compound in this model was evaluated based on relevant data of the tumor volumes and tumor weights. Table 9: Effect on growth of xenograft model of human gastric cancer NCI-N87
The test was performed based on the dosage regimen in Table 10, following the method in Biological Example 2. Table 10: List of dosage regimens

[8] = With addition of βGU (1 µg/well)

Compound: CC[C@H](C)[C@@H]([C@@H](CC(=O)N1CCC[C@H]1[C@H](OC)[C@@H](C)C(=O)N[C@H](C)[C@@H](OCc1ccc(O[C@@H]2O[C@H](C(=O)[O-])[C@@H](O)[C@H](O)[C@H]2O)cc1OCc1cn(CCCCCC(=O)Nc2ccc(-c3ccc(/N=N/c4ccc5c(S(=O)(=O)[O-])cc(S(=O)(=O)[O-])c(N)c5c4O)c(C)c3)cc2C)nn1)c1ccccc1)OC)N(C)C(=O)[C@@H](NC(=O)[C@H](C(C)C)N(C)C)C(C)C.[Na+].[Na+].[Na+] [Example compound 2]
- IC50 [1, 8]: 7.5 nM
- IC50 ([1]; βGU-free): 176 nM
- IC50 [2, 8]: 6.7 nM
- IC50 ([2]; βGU-free): 212 nM
- IC50 [3, 8]: 3.8 nM
- IC50 ([3]; βGU-free): 110 nM
- IC50 [4, 8]: 4.3 nM
- IC50 ([4]; βGU-free): 120 nM
- IC50 [5, 8]: 2.7 nM
- IC50 ([5]; βGU-free): 24 nM
- IC50 [6, 8]: 6.7 nM
- IC50 ([6]; βGU-free): 81 nM
- Final body weight change (%) ([7]; 15 mg/kg i.v. qw×2): 11.4%
- Maximum body weight change (%) ([7]; 15 mg/kg i.v. qw×2): 11.4, d26%
- Relative volume RTV (x±S.D.) ([7]; 15 mg/kg i.v. qw×2): 0.48±0.07
- T/C (%) ([7]; 15 mg/kg i.v. qw×2): 5.9%
- Tumor inhibition rate (%) ([7]; 15 mg/kg i.v. qw×2): 96.4%
- Tumor weight (g, x±S.D.) ([7]; 15 mg/kg i.v. qw×2): 0.048 ± 0.009 g
- Body weight (g, x±S.D.) End ([7]; 15 mg/kg i.v. qw×2, End): 26.9 ± 1.3 g
- Body weight (g, x±S.D.) Start ([7]; 15 mg/kg i.v. qw×2, Start): 24.2 ± 1.5 g
